Experimental data reported in ChEMBL document CHEMBL1649130, “In vitro activity of Iclaprim against respiratory and bacteremic isolates of Streptococcus pneumoniae” (Antimicrob Agents Chemother, 2009).
Converted amounts (≈) assume the structure as drawn.

Columns and labels:
Streptococcus pneumoniae [1] = experiment: Antimicrobial activity against Streptococcus pneumoniae assessed as resistant isolates broth microdilution method; assay type: functional
Streptococcus pneumoniae [2] = experiment: Antimicrobial activity against compound-susceptible Streptococcus pneumoniae by broth microdilution method
Streptococcus pneumoniae [3] = experiment: Antimicrobial activity against compound-intermediate Streptococcus pneumoniae by broth microdilution method
Streptococcus pneumoniae [4] = experiment: Antimicrobial activity against compound-resistant Streptococcus pneumoniae by broth microdilution method
Streptococcus pneumoniae [5] = experiment: Antimicrobial activity against SXT-susceptible Streptococcus pneumoniae by broth microdilution method; assay type: functional
Streptococcus pneumoniae [6] = experiment: Antimicrobial activity against penicillin-susceptible Streptococcus pneumoniae by broth microdilution method; assay type: functional
Streptococcus pneumoniae [7] = experiment: Antimicrobial activity against Ciprofloxacin-susceptible Streptococcus pneumoniae by broth microdilution method; assay type: functional
Streptococcus pneumoniae [8] = experiment: Antimicrobial activity against Doxycycline-susceptible Streptococcus pneumoniae by broth microdilution method; assay type: functional
[9] = Drug concentration in alveolar macrophages of patient with Streptococcus pneumoniae infections at 1.6 mg/kg, iv administered as single 60 mins infusion measured after 1 to 2 hrs; assay type: ADME, organism-based, Macrophage; design: dose 1.6 mg/kg, route intravenous; conditions: human, in vivo
[10] = Drug concentration in epithelial lining fluid of patient with Streptococcus pneumoniae infections at 1.6 mg/kg, iv administered as single 60 mins infusion measured after 1 to 2 hrs; assay type: ADME, organism-based; design: dose 1.6 mg/kg, route intravenous; conditions: human, in vivo
[11] = Drug concentration in alveolar macrophages of patient with Streptococcus pneumoniae infections at 1.6 mg/kg, iv administered as single 60 mins infusion measured after 3 to 4 hrs; assay type: ADME, organism-based, Macrophage; design: dose 1.6 mg/kg, route intravenous; conditions: human, in vivo
[12] = Drug concentration in epithelial lining fluid of patient with Streptococcus pneumoniae infections at 1.6 mg/kg, iv administered as single 60 mins infusion measured after 3 to 4 hrs; assay type: ADME, organism-based; design: dose 1.6 mg/kg, route intravenous; conditions: human, in vivo
[13] = Drug concentration in alveolar macrophages of patient with Streptococcus pneumoniae infections at 1.6 mg/kg, iv administered as single 60 mins infusion measured after 5.5 to 7 hrs; assay type: ADME, organism-based, Macrophage; design: dose 1.6 mg/kg, route intravenous; conditions: human, in vivo
[14] = Drug concentration in epithelial lining fluid of patient with Streptococcus pneumoniae infections at 1.6 mg/kg, iv administered as single 60 mins infusion measured after 5.5 to 7 hrs; assay type: ADME, organism-based; design: dose 1.6 mg/kg, route intravenous; conditions: human, in vivo
[15] = Streptococcus pneumoniae, read-out: MIC50

O=C(O)c1cn(C2CC2)c2cc(N3CCNCC3)c(F)cc2c1=O [CIPROFLOXACIN]
Activity (Streptococcus pneumoniae [1]): 1.7%
MIC (Streptococcus pneumoniae [2]): ≤ 1 µg/mL
MIC (Streptococcus pneumoniae [3]): 2 µg/mL (≈ 6.04 µM)
MIC (Streptococcus pneumoniae [4]): ≥ 4 µg/mL

CC[C@H]1OC(=O)[C@H](C)[C@@H](O[C@H]2C[C@@](C)(OC)[C@@H](O)[C@H](C)O2)[C@H](C)[C@@H](O[C@@H]2O[C@H](C)C[C@H](N(C)C)[C@H]2O)[C@](C)(OC)C[C@@H](C)C(=O)[C@H](C)[C@@H](O)[C@]1(C)O [CLARITHROMYCIN]
Activity (Streptococcus pneumoniae [1]): 11.8%

C[C@H]1c2cccc(O)c2C(=O)C2=C(O)[C@]3(O)C(=O)C(C(N)=O)=C(O)[C@@H](N(C)C)[C@@H]3[C@@H](O)[C@@H]21.O [DOXYCYCLINE]
Activity (Streptococcus pneumoniae [1]): 0.9%

COc1cc(Cc2cnc(N)nc2N)c2c(c1OC)OC(C1CC1)C=C2 (stereo unspecified) [ICLAPRIM]
MIC50 (Streptococcus pneumoniae [5]): 0.06 µg/mL (≈ 0.169 µM)
MIC50 (Streptococcus pneumoniae [5]; [15]): ≤ 0.03 µg/mL
MIC50 (Streptococcus pneumoniae [6]): 0.06 µg/mL (≈ 0.169 µM)
MIC50 (Streptococcus pneumoniae [6]; [15]): ≤ 0.03 µg/mL
MIC50 (Streptococcus pneumoniae [7]): 0.06 µg/mL (≈ 0.169 µM)
MIC50 (Streptococcus pneumoniae [7]; [15]): ≤ 0.03 µg/mL
MIC50 (Streptococcus pneumoniae [8]): 0.06 µg/mL (≈ 0.169 µM)
MIC50 (Streptococcus pneumoniae [8]; [15]): ≤ 0.03 µg/mL
Drug uptake [9]: 24.5 µg/mL
Drug uptake [10]: 12.61 µg/mL
Drug uptake [11]: 7.16 µg/mL
Drug uptake [12]: 6.38 µg/mL
Drug uptake [13]: 5.28 µg/mL
Drug uptake [14]: 2.66 µg/mL

CC1(C)S[C@@H]2[C@H](NC(=O)Cc3ccccc3)C(=O)N2[C@H]1C(=O)O [PENICILLIN G]
Activity (Streptococcus pneumoniae [1]): 6.8%
